This test has as its system Bacillus subtilis spores. The class given is binding.

Several values for one entry are separate records, joined by “and”; a condition that tells them apart may be missing. Equal entries are not always repeated.

In the case of “Peptide 7183 consensus (RFTISRDNAKNTLYLQMSC; Peptide 7183 artificial peptide corresponding to consensus sequence in 7183 VH gene family.) [reference compound]”, the “concentration at which the peptide stained spores” value is 200 μg/ml and 100 μM.
Consider “Peptide Anti-spore (RFTISRDNPKNTLFLQMTC; Peptide Anti-spore artificial peptide corresponding to consensus sequence in the framework 3 region of antibodies against Bacillus subtilis spores.)”, for which the “binding to B. subtilis spores” value is “bind strongly and specifically”; the “concentration at which the peptide stained spores” value is 2 μg/ml and 1 μM.
